The values that follow come from patent publication US20260165990A1, “Treatment of Tartaric Acid Toxicity in Dogs with Probenecid” (priority 2022, published 2026).

The test system of data set [1] is MDCK cells. Kind of data set: Probenecid prevention of tartaric acid induced LDH release in MDCK cells. As for the experimental part:
When conducting experiments with probenecid (Sigma Aldrich, St. Louis, MO), a stock solution of 2 mmol/L in complete media was made at pH 7.4, then mixed with either complete media or 100 mmol/L tartaric acid to yield both solutions of 1 mmol/L and 500 μmol/L and solutions of 1 mmol/L probenecid+50 mmol/L potassium bitartrate, as well as 500 μmol/L+50 mmol/L potassium bitartrate. MDCK cells were treated and allowed to incubate for 72 hours.
(§1) Absorbance was read at 450 nm.
As TTA is a common, dietary dicarboxylic acid, it is believed to be renally excreted via organic anion-handling transporters. Therefore, to assess the role of OAT-mediated TTA transport, MDCK cells were exposed to 50 mM tartaric acid alone or in combination with 1 mM or 0.5 mM probenecid; a known OAT-1 inhibitor.
Background: Release of lactate dehydrogenase indicates damage to the cell membrane.

The next data set concerns dogs. The following applies: cited from earlier work.
Data set [2] deals with MDCK cells. Nature of the data set: ATP depletion in MDCK cells (CellTiter Glo assay). Format: cell-based, canine. The procedure:
TTA concentration groups were compared to media alone (Neg.) using one-way ANOVA followed by a Dunnett's post-hoc test. (n=3/group). * p<0.05; ** p<0.005; *** p<0.001; **** p<0.0001.
500 μM probenecid (PBD) protected MDCK cells from 25 mM and 50 mM TTA-induced ATP depletion at 12 & 72 h, assessed using a CellTiter Glo® assay. Groups were compared using one-way ANOVA followed by a Tukey's post-hoc test. (n=3); ***p<0.001, **** p<0.0001 compared to media; $p<0.05 compared to 25 or 50 mM TTA alone.
ATP depletion was determined in MDCK cells as another measure of cytotoxicity of TTA. The results shown in FIG. 3 indicate that ATP depletion was both time-and dose-dependent. In FIG. 4, it can be observed that dose-response curves were obtained for TTA-induced ATP depletion, and the cells became more sensitive at each increasing dose, and with increasing time of exposure to TTA. This established the MDCK cell culture model as a valid predictor of TTA-induced renal pathology in canine kidney in vitro.
(Cellular ATP, detected with luciferase, serves as a proxy for viable cell number.)

A further data set relates to renal tubular excretion. Particulars: canines, effect plateaus at this dose; cited from earlier work.
Data set [3] has as its system MDCK cells.
Description: MDCK cells were maintained in EMEM media supplemented with 10% Fetal Bovine Serum and 1% streptomycin. […] Both cell lines were incubated at 37° C. and 5% CO2 until confluency.
For experiments, both cell lines were incubated in triplicate with an endpoint of 72 hours. Treatment concentrations were made using a stock solution of 100 mmol/L potassium bitartrate in complete media. Final treatment concentrations of 5, 10, 25, 50, 75, and 100 mmol/L were reached via serial dilution. To mimic physiological pH of 7.4, 10N NaOH and 10M HCl were used. A positive control of 0.005% hydrogen peroxide was also used.
Release of lactate dehydrogenase (LDH) from the cytosol in response to plasma membrane damage is a common measure of necrotic cell death and was measured utilizing the LDH-Cytotoxicity assay kit according to the manufacturer's protocol (BioVision, Milpitas, CA). Briefly, media from treated MDCK or HK-2 cells was removed and samples placed into a 96 well plate in duplicate. A mixture of WST kit reagent and buffer in a 25:1 ratio was then added to each well. The plate was covered and allowed to incubate at room temperature for 30 minutes. Absorbance was read at 450 nm. To normalize for potential cell confluency differences, cells were solubilized with 0.05% Triton-X, and cellular protein was analyzed using the bicinchoninic acid (BCA) method.
Data set [4] deals with MDCK cells transfected with human OAT-4. Nature of the data set: LDH release in hOAT-4 transfected MDCK cells. The format is cell-based, canine. Particulars: 50 mM TTA, 72 h. The procedure:
In order to assess the role that OAT transporters may play in tartaric acid induced nephrotoxicity, MDCK cells were transfected with human OAT-4 and treated with 50 mmol/L of potassium bitartrate. Human (h)OAT-4 cDNA (GenScript, Piscataway, NJ) was purchased and transformed using E. coli (New England Biolabs, Ipswich, MA) to produce higher amounts of cDNA to be used in transfection. E. coli was transformed per New England Biolab's protocol. Briefly, E. coli was thawed, plasmid cDNA was added, and then mixed with manufacturer's SOC solution. The mixture was allowed to incubate at 37° C. for 60 minutes, and was then spread on LB agar ampicillin-100 plates (Sigma Aldrich, St. Louis, MO) and allowed to incubate for 24 hours at 37° C. Colonies were then collected, placed into a solution of LB […] ampicillin-100 broth, and incubated overnight.
Human OAT-4 plasmid preparation with the amplified E. coli was completed using the PureYield Plasmid Miniprep System (Promega, Madison, WI) following manufacturers protocol. Briefly, 4 mL of culture was collected and centrifuged. The supernatant was removed, and the cell pellet was resuspended in 600 μL 1xPBS. […] The concentration of the elucidated cDNA was then measured using a NanoDrop spectrophotometer (yielding cDNA ranging from 264.8 to 762.8 ng/uL). […]
as §1

The next data set concerns canines. Particulars: grape ingestion, tartaric acid equivalent; cited from earlier work.
In another data set the test system is HK-2 cells. Nature of the data set: LDH release cytotoxicity of tartaric acid in HK-2 cells. The format is cell-based, human.
Description: as §1

Read-outs that look alike come from different tables or passages of the source.

For the compound `CCCN(CCC)S(=O)(=O)c1ccc(C(=O)O)cc1` [probenecid, 4-(dipropylsulfamoyl)benzoic acid], the “prevention of TTA-induced cytotoxicity” value with MDCK cells [1] (500 μM and 1 mM probenecid) is listed as “completely prevented”. Further, the LDH release is reported as 1.658 with MDCK cells [1] (0.5 mM probenecid + 50 mM TTA, 72 h) and 1.518 in the data set on MDCK cells [1] (1 mM probenecid + 50 mM TTA, 72 h). The “cell death by probenecid alone” value in the data set on MDCK cells [1] (probenecid alone at 0.5 mM or 1 mM, 72 h) was “did not induce significant cell death”. For the same compound, the LD50 (commonly the dose expected to kill half of the subjects tested) in the data set on dogs (IV) is 270 mg/kg. The therapeutic index result in the data set with dogs is recorded as “high”. Moreover, the “protection from TTA-induced ATP depletion” value in the data set with MDCK cells [2] (500 μM probenecid, 25 mM and 50 mM TTA, 12 & 72 h) is on record as “protected”. The “oral dose enough to completely suppress renal tubular excretion” value in the data set with renal tubular excretion is reported as 6 mg/kg.

Consider `O=C(O)C(O)C(O)C(=O)O` (stereo not drawn) [TTA, tartaric acid], for which the LDH release was determined as 4.302 in the data set with MDCK cells [1] (50 mM TTA alone, 72 h (probenecid experiment)); 1.769 in the data set with MDCK cells [3] (MDCK cells, 10 mM, 72 h, pH 7.4); 1.472 with MDCK cells [3] (MDCK cells, 25 mM, 72 h, pH 7.4); 1.646 in the data set with MDCK cells [3] (MDCK cells, 50 mM, 72 h, pH 7.4); 2.540 in the data set with MDCK cells [3] (MDCK cells, 75 mM, 72 h, pH 7.4); 1.778 in the data set on MDCK cells [3] (MDCK cells, 100 mM, 72 h, pH 7.4). In addition, the LDH release is 2.807 with MDCK cells [3] (non-transfected MDCK cells, 50 mM TTA, 72 h (transfection experiment)); 1.213 in data set [4]; “no statistically significant increase in LDH release” with HK-2 cells (HK-2 cells, 72 h, pH 7.4, 5-100 mmol/L, vs negative control). Besides, the “lowest concentration with significant increase in TTA-induced cytotoxicity” value in the data set on MDCK cells [3] (MDCK cells, 72 h of exposure, vs controls) is recorded as 10 mmol/L. In addition, the “ingested dose (as tartaric acid) resulting in significant nephrotoxicity” value with canines is 196 to 1484 mg/kg. Besides, in the data set with HK-2 cells (same exposure concentrations across species, two-way ANOVA), the “TTA-induced LDH release, HK-2 vs. MDCK cells” value was “no significant difference”. For the same compound, the ATP depletion result with MDCK cells [2] (function of time and dose of TTA exposure) was “induced significant ATP depletion”.
